US8101774B2, “Ester derivatives and medicinal use thereof” (Japan Tobacco Inc., priority 2004, dated 2012)
Structures can show the parent of a compound that is named as a salt.

molecular target: T1, Microsomal triglyceride transfer protein (MTP) from human small intestine microsome (Homo sapiens, UniProt P55157); assay: Inhibition test of interliposomal triglyceride (TG) transfer activity by MTP; type: biochemical; settings: purified MTP from human small intestine microsome, 37° C., 1.5 hours
T1 construct: Human small intestine microsome was dialyzed against 10 mM phosphate buffer; tissue Tissue Transforming Technologies, Inc; host or cells: human small intestine microsome
Protocol: Microsomal triglyceride transfer protein (MTP) from human small intestine microsome (manufactured by Tissue Transforming Technologies, Inc.) was purified in such a way described below. Human small intestine microsome was dialyzed against 10 mM phosphate buffer (300 mL, pH 6.8) twice for about 2 hours and once for further not less than 12 hours, at about 4° C. After dialysis, the mixture was centrifuged at 4° C. and 15,000×g for 5 minutes and then the supernatant was recovered. The previously recovered supernatant was purified by column chromatography on diethylaminoethyl (DEAE) Sepharose using FPLC (Fast Performance Liquid Chromatography) system, and the purified MTP was used for the test as described below.
Small unilamellar-vesicle (SUV) liposome (hereinafter described as donor, containing 0.25% (mol/mol) triolein and 5% (mol/mol) cardiolipin) constituted by triolein labeled with ^14C and non-labeled SUV liposome (hereinafter described as acceptor, containing […] triolein) were prepared in such a way described below.
Firstly, in order to prepare the donor, there were volatilized under a stream of nitrogen gas a phosphatidylcholine solution containing phosphatidylcholine labeled with ^3H, a cardiolipin solution, and a triolein solution containing triolein labeled with ^14C (each solution had been already dissolved in an appropriate organic solvent), or in order to prepare the acceptor, there were volatilized under nitrogen flow a phosphatidylcholine solution containing phosphatidylcholine labeled with ^3H and a cardiolipin solution (each solution had been already dissolved in an appropriate organic solvent). An appropriate amount of a reaction buffer (15 mM Tris-HCl buffer containing 1 mM EDTA.Na2, 40 mM NaCl, and 0.5% (w/v) bovine serum albumin, pH 7.4) was added thereto to be emulsified. The emulsions were treated with ultrasonication under ice-cooling and centrifuged at 4° C. and 159,000×g for 2 hours. Each of the resulting supernatant was used for donor or acceptor.
Each radioactivity in the acceptor and the donor was measured by liquid scintillation counter, and a mixed solution of the acceptor and the donor was prepared with a reaction buffer so as to be a donor-derived radioactivity of 16,000 dpm/400 μL and a acceptor-derived radioactivity of 4,000 dpm/[…]. 400 μL of the mixed solution of the donor and the acceptor, 45 μL of the reaction buffer, 50 μL of MTP (20 μg/mL), and 5 μL of a sample dissolved in DMSO (dimethyl sulfoxide) or 5 μL of DMSO was mixed (total amount: 500 μL). The mixture was incubated at 37° C. for 1.5 hours. After completion of the incubation, 1.25 mL of a suspension of DEAE cellulose (66.7% (v/v)) in 15 mM Tris-HCl buffer (pH 7.4) containing 1 mM EDTA.Na2 was added to the above solution. The mixture was centrifuged to separate the donor (adsorbed on the DEAE cellulose to precipitate) and the acceptor (the supernatant). The radioactivity in the acceptor was measured by liquid scintillation counter. The value obtained by subtracting the radioactivity in a blank group from the radioactivity in the acceptor of a DMSO group was determined as MTP-mediated TG transfer activity, and it was compared with the value obtained by subtracting the radioactivity in the blank group from the radioactivity in a sample group. Here, the blank was prepared by adding 10 mM phosphate buffer (pH 6.8) containing 250 mM NaCl in place of MTP. Inhibition rate (%) was calculated from values obtained according to the following equation. Inhibition rate(%)=(1 minus((radioactivity of sample group minus radioactivity of blank group)/(radioactivity of DMSO group minus radioactivity of blank group)))×100.
50% Inhibition rate (IC50) was determined on the basis of the above equation.

T1 sequence (P55157 19-894): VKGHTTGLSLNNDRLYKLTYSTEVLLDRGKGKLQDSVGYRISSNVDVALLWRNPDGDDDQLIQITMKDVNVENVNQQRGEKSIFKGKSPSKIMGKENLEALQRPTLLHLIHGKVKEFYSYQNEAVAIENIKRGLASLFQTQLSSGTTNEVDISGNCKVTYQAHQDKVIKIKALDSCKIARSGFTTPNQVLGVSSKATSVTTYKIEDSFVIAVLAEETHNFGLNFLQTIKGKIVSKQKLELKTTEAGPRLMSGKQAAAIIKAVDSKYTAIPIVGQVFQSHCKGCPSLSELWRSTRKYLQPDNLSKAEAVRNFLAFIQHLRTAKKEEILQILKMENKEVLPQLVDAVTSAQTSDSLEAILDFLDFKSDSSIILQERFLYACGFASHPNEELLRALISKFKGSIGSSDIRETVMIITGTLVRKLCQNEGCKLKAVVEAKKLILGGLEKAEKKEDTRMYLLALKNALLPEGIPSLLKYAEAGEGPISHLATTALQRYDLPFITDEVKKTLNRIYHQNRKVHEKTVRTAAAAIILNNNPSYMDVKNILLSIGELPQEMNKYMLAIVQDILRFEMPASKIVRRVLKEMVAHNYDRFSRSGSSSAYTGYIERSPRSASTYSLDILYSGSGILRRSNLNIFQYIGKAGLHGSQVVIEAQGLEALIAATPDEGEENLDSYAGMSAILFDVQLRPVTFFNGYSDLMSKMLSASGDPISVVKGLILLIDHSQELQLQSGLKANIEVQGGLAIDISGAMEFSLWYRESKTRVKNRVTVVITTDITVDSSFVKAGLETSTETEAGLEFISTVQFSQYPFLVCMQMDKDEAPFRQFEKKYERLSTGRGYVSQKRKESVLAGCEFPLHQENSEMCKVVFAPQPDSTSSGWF
T1 sequence (P07237 18-508 partner): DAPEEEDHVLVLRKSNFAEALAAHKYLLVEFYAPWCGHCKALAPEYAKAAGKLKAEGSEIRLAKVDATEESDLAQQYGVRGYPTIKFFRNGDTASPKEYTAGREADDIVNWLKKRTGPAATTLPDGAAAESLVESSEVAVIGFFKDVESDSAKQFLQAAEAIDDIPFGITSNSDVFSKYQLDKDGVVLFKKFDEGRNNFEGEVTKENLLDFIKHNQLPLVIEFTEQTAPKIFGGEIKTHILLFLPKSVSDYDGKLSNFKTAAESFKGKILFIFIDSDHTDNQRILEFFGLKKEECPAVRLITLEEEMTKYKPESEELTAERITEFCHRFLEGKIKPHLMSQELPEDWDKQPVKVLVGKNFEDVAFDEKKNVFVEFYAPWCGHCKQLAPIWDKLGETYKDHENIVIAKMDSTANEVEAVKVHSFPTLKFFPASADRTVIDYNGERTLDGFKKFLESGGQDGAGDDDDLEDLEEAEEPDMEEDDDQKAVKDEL

| IC50 [nM] | SMILES |
| --- | --- |
| < 10 | COC(=O)c1cc(C)c(OC(=O)CCCc2ccc(NC(=O)c3ccc(C)nc3-c3ccc(C(F)(F)F)cc3)c(C(=O)N(C)C)c2)c(F)c1 [Compound 1-41, 4-[4-(3-dimethylcarbamoyl-4-{[6-methyl-2-(4-trifluoromethylphenyl)pyridine-3-carbonyl]amino}phenyl)butyryloxy]-3-fluoro-5-methylbenzoic acid methyl ester] |
| < 10 | CCc1cc(C(=O)OC)cc(F)c1OC(=O)CCCc1ccc(NC(=O)c2ccc(C)nc2-c2ccc(C(F)(F)F)cc2)c(C(=O)N(C)C)c1 [Compound 1-42, 4-[4-(3-dimethylcarbamoyl-4-{[6-methyl-2-(4-trifluoromethylphenyl)pyridine-3-carbonyl]amino}phenyl)butyryloxy]-3-ethyl-5-fluorobenzoic acid methyl ester] |
| < 10 | COC(=O)c1cc(C)c(OC(=O)CCCc2ccc(NC(=O)c3ccc(C)nc3-c3ccc(C(F)(F)F)cc3)c(C(=O)N(C)C)c2)c(C(F)(F)F)c1 [Compound 1-45, 4-[4-(3-dimethylcarbamoyl-4-{[6-methyl-2-(4-trifluoromethylphenyl)pyridine-3-carbonyl]amino}phenyl)butyryloxy]-3-methyl-5-trifluoromethylbenzoic acid methyl ester] |
| < 10 | COC(=O)c1cc(C)c(OC(=O)CCCc2ccc(NC(=O)c3ccc(C)nc3-c3ccc(C(F)(F)F)cc3)c(C(=O)N(C)C)c2)c(OC)c1 [Compound 1-46, 4-[4-(3-dimethylcarbamoyl-4-{[6-methyl-2-(4-trifluoromethylphenyl)pyridine-3-carbonyl]amino}phenyl)butyryloxy]-3-methoxy-5-methylbenzoic acid methyl ester] |
| < 10 | COC(=O)c1cc(OC)c(OC(=O)CCCc2ccc(NC(=O)c3ccc(C)nc3-c3ccc(C(F)(F)F)cc3)c(C(=O)N(C)C)c2)c(C(F)(F)F)c1 [Compound 1-47, 4-[4-(3-dimethylcarbamoyl-4-{[6-methyl-2-(4-trifluoromethylphenyl)pyridine-3-carbonyl]amino}phenyl)butyryloxy]-3-methoxy-5-trifluoromethylbenzoic acid methyl ester] |
| < 10 | COC(=O)c1cc(Br)c(OC(=O)CCCc2ccc(NC(=O)c3ccc(C)nc3-c3ccc(C(F)(F)F)cc3)c(C(=O)N(C)C)c2)c(OC)c1 [Compound 1-50, 3-bromo-4-[4-(3-dimethylcarbamoyl-4-{[6-methyl-2-(4-trifluoromethylphenyl)pyridine-3-carbonyl]amino}phenyl)butyryloxy]-5-methoxybenzoic acid methyl ester] |
| < 10 | CCOC(=O)c1cc(C)c(OC(=O)CCCc2ccc(NC(=O)c3ccc(C)nc3-c3ccc(C(F)(F)F)cc3)c(C(=O)N(C)C)c2)c(C(=O)OC)c1 [Compound 1-52, 4-[4-(3-dimethylcarbamoyl-4-{[6-methyl-2-(4-trifluoromethylphenyl)pyridine-3-carbonyl]amino}phenyl)butyryloxy]-5-methylisophthalic acid 1-ethyl ester 3-methyl ester] |
| < 10 | COC(=O)c1cc(C)c(OC(=O)CCCc2ccc(NC(=O)c3ccc(C)nc3-c3ccc(C(F)(F)F)cc3)c(C(=O)N(C)C)c2)c(C)c1 [Compound 1-65, 4-[4-(3-dimethylcarbamoyl-4-{[6-methyl-2-(4-trifluoromethylphenyl)pyridine-3-carbonyl]amino}phenyl)butyryloxy]-3,5-dimethylbenzoic acid methyl ester] |

The remaining lines, values behind:

| SMILES | IC50 [nM] |
| --- | --- |
| CCOC(=O)c1cc(OC)c(OC(=O)CCCc2ccc(NC(=O)c3ccc(C)nc3-c3ccc(C(F)(F)F)cc3)c(C(=O)N(C)C)c2)c(OC)c1 [Compound 1-43, 4-[4-(3-dimethylcarbamoyl-4-{[6-methyl-2-(4-trifluoromethylphenyl)pyridine-3-carbonyl]amino}phenyl)butyryloxy]-3,5-dimethoxybenzoic acid ethyl ester] | < 10 |
| COc1cc(C(=O)OC(C)C)cc(OC)c1OC(=O)CCCc1ccc(NC(=O)c2ccc(C)nc2-c2ccc(C(F)(F)F)cc2)c(C(=O)N(C)C)c1 [Compound 1-44, 4-[4-(3-dimethylcarbamoyl-4-{[6-methyl-2-(4-trifluoromethylphenyl)pyridine-3-carbonyl]amino}phenyl)butyryloxy]-3,5-dimethoxybenzoic acid isopropyl ester] | < 10 |
| CCOC(=O)c1cc(Cl)c(OC(=O)CCCc2ccc(NC(=O)c3ccc(C)nc3-c3ccc(C(F)(F)F)cc3)c(C(=O)N(C)C)c2)c(OC)c1 [Compound 1-48, 3-chloro-4-[4-(3-dimethylcarbamoyl-4-{[6-methyl-2-(4-trifluoromethylphenyl)pyridine-3-carbonyl]amino}phenyl)butyryloxy]-5-methoxybenzoic acid ethyl ester] | < 10 |
| CCOc1cc(C(=O)OC)cc(OC)c1OC(=O)CCCc1ccc(NC(=O)c2ccc(C)nc2-c2ccc(C(F)(F)F)cc2)c(C(=O)N(C)C)c1 [Compound 1-49, 4-[4-(3-dimethylcarbamoyl-4-{[6-methyl-2-(4-trifluoromethylphenyl)pyridine-3-carbonyl]amino}phenyl)butyryloxy]-3-ethoxy-5-methoxybenzoic acid methyl ester] | < 10 |
| CCc1cc(C(=O)OC)cc(C(=O)OC)c1OC(=O)CCCc1ccc(NC(=O)c2ccc(C)nc2-c2ccc(C(F)(F)F)cc2)c(C(=O)N(C)C)c1 [Compound 1-51, 4-[4-(3-dimethylcarbamoyl-4-{[6-methyl-2-(4-trifluoromethylphenyl)pyridine-3-carbonyl]amino}phenyl)butyryloxy]-5-ethylisophthalic acid dimethyl ester] | < 10 |
| COC(=O)c1cc(OC)c(OC(=O)CCCc2ccc(NC(=O)c3ccc(C)nc3-c3ccc(C(F)(F)F)cc3)c(C(=O)N(C)C)c2)c(C(=O)OC)c1 [Compound 1-53, 4-[4-(3-dimethylcarbamoyl-4-{[6-methyl-2-(4-trifluoromethylphenyl)pyridine-3-carbonyl]amino}phenyl)butyryloxy]-5-methoxyisophthalic acid dimethyl ester] | < 10 |
| CCOC(=O)c1cc(OC)c(OC(=O)CCCc2ccc(NC(=O)c3ccc(C)nc3-c3ccc(C(F)(F)F)cc3)c(C(=O)N(C)C)c2)c(C(=O)OC)c1 [Compound 1-54, 4-[4-(3-dimethylcarbamoyl-4-{[6-methyl-2-(4-trifluoromethylphenyl)pyridine-3-carbonyl]amino}phenyl)butyryloxy]-5-methoxyisophthalic acid 1-ethyl ester 3-methyl ester] | < 10 |
| Cc1ccc(C(=O)Nc2ccc(CCCC(=O)Oc3ccc(C(=O)OC(C)C)cc3)cc2C(=O)N(C)C)c(-c2ccc(C(F)(F)F)cc2)n1 [Compound 1-63, 4-[4-(3-dimethylcarbamoyl-4-{[6-methyl-2-(4-trifluoromethylphenyl)pyridine-3-carbonyl]amino}phenyl)butyryloxy]benzoic acid isopropyl ester sulfate] | < 10 |
| COC(=O)c1cc(C)c(OC(=O)CCCc2ccc(NC(=O)c3ccccc3-c3ccc(C(F)(F)F)cc3)c(C(=O)N(C)C)c2)c(C)c1 [Compound 1-64, 4-[4-(3-dimethylcarbamoyl-4-{(4′-trifluoromethylbiphenyl-2-carbonyl)amino}phenyl)butyryloxy]-3,5-dimethylbenzoic acid methyl ester] | < 10 |
| CCc1cc(C(=O)OC)ccc1OC(=O)CCCc1ccc(NC(=O)c2ccccc2-c2ccc(C(F)(F)F)cc2)c(C(=O)N(C)C)c1 [Compound 1-67, 4-[4-(3-dimethylcarbamoyl-4-{(4′-trifluoromethylbiphenyl-2-carbonyl)amino}phenyl)butyryloxy]-3-ethylbenzoic acid methyl ester] | < 10 |
